According to patent US12479816B2, “20-HETE formation inhibitors” (UNIVERSITY OF PITTSBURGH—OF THE COMMONWEALTH SYSTEM OF …, priority 2019, dated 2025):

Assays:
[1] = tested on: 20-HETE formation (CYP4) in HLM; experiment: Inhibition of 20-HETE formation at 250 or 500 nM in HLM microsomal incubations; format: biochemical, human; conditions: 500 nM compound; HLM 300 μg/ml, AA 100 μM, 20 min
Protocol: (§1) To screen the inhibitory effects against 20-HETE formation, compounds were screened in HLM, RLM, RKM and rCYP4F2 microsomal incubations. Compounds dissolved in either 100% methanol or 100% DMSO to yield 10 mM stock solution. Microsomal incubations containing HLM, RLM, RKM (300 μg/ml) or rCYP4F2 (25 pmol/mL), AA (100 μM), NADPH (1 mM) treated with test compounds at various concentrations (500 nM or 250 nM) in a 1 ml total volume in incubation buffer (0.12 M potassium phosphate buffer containing 5 mM magnesium chloride). Reaction was started by adding NADPH to the incubates and was carried out at 37° C. in a shaking water bath for 20 min. Reaction was stopped by placing tubes on ice, followed by adding 125 μl 20-HETE-d6 as internal standard to each sample. Microsomal incubations were extracted with 3 ml ethyl ether twice, dried down under nitrogen gas and reconstituted in 125 μl 80:20 methanol:deionized H2O for analysis. 20-HETE formation was quantified using a validated UPLC-MS/MS assay and normalized by vehicle group. Each compound had three replications (n=3). Vehicle group was used as control to calculate percentage of 20-HETE formation rate. HET0016 (250 nM) was used as positive control. Incubates without NADPH group served as the negative control. An Acquity ultra performance LC autosampler (Waters, Milford, MA) was used to isolate 20-HETE on an UPLC BEH C18, 1.7 μm (2.1×100 mm) reversed-phase column (Waters, Milford, MA) protected by a guard column (2.1×5 mm; Waters, Milford, MA) of the same packing material. Column temperature was maintained at 55° C. Mobile phases consisted of 0.005% acetic acid, 5% acetonitrile in deionized water (A) and 0.005% acetic acid in acetonitrile (B). The flow rate for mobile phases is 0.5 ml/min. The initial mixture of mobile phase was 65:35 of A and B. Mobile phase B increased at 0.4 minutes after injection from 35% to 70% in a linear gradient over 4 minutes, and again increased to 95% over 0.5 minutes where it remained for 0.3 minutes. This was followed by a linear return to initial conditions over 0.1 minutes with a 1.5 minute pre-equilibration period prior to the next sample run. Total run time was 6.4 minutes for each injection. Injection volumes were 7.5 μl. Mass spectrometric analysis was carried out using a TSQ Quantum Ultra (Thermo Fisher Scientific, San Jose, CA) triple quadrupole mass spectrometer using heated electrospray ionization (HESI). Mass spectrometer was operated in negative selective reaction monitoring (SRM) mode with unit resolutions at both Q1 and Q3 set at 0.70 Da full width at half maximum. Scan time was set at 0.01 s and collision gas pressure was 1.3 mTorr. Quantitation of 20-HETE by SRM was performed by monitoring the m/z. Analytical data was acquired and analyzed using Xcaliber 3.0 data system (ThermoFinnigan, San Jose, CA).

rCYP4F2 = biological target: T1, rCYP4F2 (Homo sapiens, UniProt P78329); experiment: Inhibition of 20-HETE formation at 250 or 500 nM in rCYP4F2 incubations; format: biochemical; conditions: 500 nM compound; rCYP4F2 25 pmol/mL; read-out: rCYP4F2 % inh. @ 500 nM
T1 sequence (P78329 5-520): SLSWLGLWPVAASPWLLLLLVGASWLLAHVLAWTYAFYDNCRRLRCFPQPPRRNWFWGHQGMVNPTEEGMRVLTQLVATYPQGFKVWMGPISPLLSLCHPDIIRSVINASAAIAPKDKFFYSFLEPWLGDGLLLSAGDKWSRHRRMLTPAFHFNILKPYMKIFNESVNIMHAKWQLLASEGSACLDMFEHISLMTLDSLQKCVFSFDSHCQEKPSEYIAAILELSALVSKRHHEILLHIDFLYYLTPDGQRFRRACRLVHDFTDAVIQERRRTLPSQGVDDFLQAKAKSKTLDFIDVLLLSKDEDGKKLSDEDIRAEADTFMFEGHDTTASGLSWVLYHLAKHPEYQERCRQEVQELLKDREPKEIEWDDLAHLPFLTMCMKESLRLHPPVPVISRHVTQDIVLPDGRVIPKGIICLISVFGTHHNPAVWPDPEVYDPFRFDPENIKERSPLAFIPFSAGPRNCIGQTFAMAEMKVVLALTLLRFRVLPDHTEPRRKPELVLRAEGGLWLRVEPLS
Protocol: as §1

[2] = tested on: 20-HETE formation (CYP4) in RLM; experiment: Inhibition of 20-HETE formation at 250 or 500 nM in RLM microsomal incubations; format: biochemical, rat; conditions: 500 nM compound; RLM 300 μg/ml
Protocol: as §1

| Structure (SMILES) | HLM % inh. @ 500 nM [1] [%] | inhibition at 0.5 µM (rCYP4F2) [%] | RLM % inh. @ 500 nM [2] [%] |
| --- | --- | --- | --- |
| COc1ccccc1C1CCN(c2ccn[nH]2)CC1 [Compound 21, 4-(2-Methoxyphenyl)-1-(1H-pyrazol-5-yl)piperidine] | 8.80 | 2 | 0.00 |
| Cc1cc(N2CCC(c3ccccc3)CC2)[nH]n1 [Compound 38, 1-(5-Methyl-1H-pyrazol-5-yl)-4-phenylpiperidine] | 0.00 | 22.3 | 0.00 |
| c1ccc(SC2CCN(c3ccn[nH]3)CC2)cc1 [Compound 39, 4-(Phenylthio)-1-(1H-pyrazol-5-yl)piperidine] | 6.00 | 22.7 | 0.00 |
| COC(=O)c1cccc(C2CCN(c3ccn[nH]3)CC2)c1 [Compound 56, Methyl 3-(1-(1H-pyrazol-5-yl)piperidin-4-yl)benzoate] | 0.00 | 11.4 | 0.00 |
| O=C(c1ccc(C2CCN(c3cn[nH]c3)CC2)cc1)N1CCCC1 [Compound 77, (4-(1-(1H-Pyrazol-4-yl)piperidin-4-yl)phenyl)(pyrrolidin-1-yl)methanone] | 84.4 | 55 | 13.80 |
| COc1ccc(CC2CCN(c3ccn[nH]3)CC2)cc1 [Compound 79, 4-(4-Methoxybenzyl)-1-(1H-pyrazol-5-yl)piperidine] | 60 | 62 | 4.00 |
| O=C(c1ccc(C2CCN(c3ccn[nH]3)CC2)c(F)c1)N1CCCC1 [Compound 82] | 75 | 36 | 2.00 |
| O=S(=O)(c1ccc(C2CCN(c3cn[nH]c3)CC2)cc1)N1CCCC1 [Compound 85, 1-(1H-Pyrazol-4-yl)-4-(4-(pyrrolidin-1-ylsulfonyl)phenyl)piperidine] | 81.3 | 64 | 0.00 |
| FC(F)(F)c1ccnc(C2CCN(c3cn[nH]c3)CC2)c1 [Compound 86, 2-(1-(1H-pyrazol-4-yl)piperidin-4-yl)-4-(trifluoromethyl)pyridine] | 37.9 | 49.4 | 18.10 |
| FC(F)(F)c1ccnc(C2CCN(c3ccn[nH]3)CC2)c1 [Compound 87, 2-(1-(1H-Pyrazol-5-yl)piperidin-4-yl)-4-(trifluoromethyl)pyridine] | 15.6 | 7.4 | 2.70 |
| c1cnc(SC2CCN(c3cn[nH]c3)CC2)nc1 [Compound 88, 2-((1-(1H-Pyrazol-4-yl)piperidin-4-yl)thio)pyrimidine] | 39.8 | 26.4 | 0.00 |
| Clc1cccc(CC2CCN(c3ccn[nH]3)CC2)c1 [Compound 91, 4-(3-Chlorobenzyl)-1-(1H-pyrazol-5-yl)piperidine] | 40.4 | 39.1 | 0.00 |
| Cc1cccc(CC2CCN(c3cn[nH]c3)CC2)c1 [Compound 94, 4-(3-Methylbenzyl)-1-(1H-pyrazol-4-yl)piperidine] | 61.3 | 60.3 | 13.50 |
| Cc1cccc(CC2CCN(c3ccn[nH]3)CC2)c1 [Compound 97, 4-(3-Methylbenzyl)-1-(1H-pyrazol-5-yl)piperidine] | 35.30 | 22.9 | 0.00 |
| COc1cc(CC2CCN(c3ccn[nH]3)CC2)ccn1 [Compound 99, 4-((1-(1H-Pyrazol-5-yl)piperidin-4-yl)methyl)-2-methoxypyridine] | 17.70 | 0 | 0.00 |
| O=S1(=O)CCc2cc(C3CCN(c4cn[nH]c4)CC3)ccc21 [Compound 102, 5-(1-(1H-Pyrazol-4-yl)piperidin-4-yl)-2,3-dihydrobenzo[b]thiophene 1,1-dioxide] | 36.50 | 27.9 | 0.00 |

Next, values leading:

| HLM % inh. @ 500 nM [1] [%] | inhibition at 0.5 µM (rCYP4F2) [%] | RLM % inh. @ 500 nM [2] [%] | Structure (SMILES) |
| --- | --- | --- | --- |
| 0.00 | 0 | 0.00 | COc1ccccc1C1CCN(c2cn[nH]c2)CC1 [Compound 22, 4-(2-Methoxyphenyl)-1-(1H-pyrazol-4-yl)piperidine] |
| 0.00 | 31.9 | 0.00 | Cc1n[nH]cc1N1CCC(c2ccccc2)CC1 [Compound 37, 1-(3-Methyl-1H-pyrazol-4-yl)-4-phenylpiperidine] |
| 0.00 | 41.2 | 43.10 | COC(=O)c1cccc(C2CCN(c3cn[nH]c3)CC2)c1 [Compound 57, Methyl 3-(1-(1H-pyrazol-4-yl)piperidin-4-yl)benzoate] |
| 48 | 70.9 | 0 | COc1ccc(SC2CCN(c3ccn[nH]3)CC2)cc1 [Compound 68, 4-((4-Methoxyphenyl)thio)-1-(1H-pyrazol-5-yl)piperidine] |
| 84 | 71 | 0.00 | COc1cccc(SC2CCN(c3cn[nH]c3)CC2)c1 [Compound 76, 4-((3-Methoxyphenyl)thio)-1-(1H-pyrazol-4-yl)piperidine] |
| 83.6 | 31 | 0.00 | O=C(c1ccc(C2CCN(c3ccn[nH]3)CC2)cc1)N1CCCC1 [Compound 78, (4-(1-(1H-Pyrazol-5-yl)piperidin-4-yl)phenyl)(pyrrolidin-1-yl)methanone] |
| 67 | 70.3 | 20.80 | Clc1cccc(CC2CCN(c3cn[nH]c3)CC2)c1 [Compound 90, 4-(3-chlorobenzyl)-1-(1H-pyrazol-4-yl)piperidine] |
| 77.3 | 87.1 | 0.00 | Fc1ccccc1SC1CCN(c2cn[nH]c2)CC1 [Compound 92, 4-((2-Fluorophenyl)thio)-1-(1H-pyrazol-4-yl)piperidine] |
| 42.8 | 26.3 | 15.40 | FC(F)(F)c1cncc(C2CCN(c3cn[nH]c3)CC2)c1 [Compound 95, 4 3-(1-(1H-Pyrazol-4-yl)piperidin-4-yl)-5-(trifluoromethyl)pyridine] |
| 63.10 | 16.4 | 0.00 | O=S(=O)(c1ccc(C2CCN(c3ccn[nH]3)CC2)cc1)N1CCCC1 [Compound 96, 1-(1H-Pyrazol-5-yl)-4-(4-(pyrrolidin-1-ylsulfonyl)phenyl)piperidine] |
| 37.20 | 25 | 5.00 | COc1cc(CC2CCN(c3cn[nH]c3)CC2)ccn1 [Compound 98, 4-((1-(1H-Pyrazol-4-yl)piperidin-4-yl)methyl)-2-methoxypyridine] |
